Assay results as given in PMC8433497, “DNA-encoded chemistry technology yields expedient access to SARS-CoV-2 M^pro inhibitors” (Proceedings of the National Academy of Sciences of the …, 2021).
“Also recorded” adds a separate entry of the source. Where two headings read alike, the source gives them in different places.

Legend:
[1] = Metabolic stability in mouse liver microsomes; type: in vitro ADME; settings: for half-life at 2 μM: 0.5 mg protein/ml, 2.0 uM compound, 1.0 mM NADPH, read-out: MLM t1/2
Protocol: (§1) The samples were collected at specific time points, 0, 30, and 60 min, in duplicate. The reactions were terminated by adding an equivalent volume of ice-cold methanol and vortexed. […] Three microliters […] of the supernatant was analyzed by UHPLC-Q Exactive Orbitrap MS (Thermo Fisher Scientific) equipped with 50-mm × 4.6-mm column (XDB C-18; Agilent Technologies). The column temperature was maintained at 40 °C. The flow rate was at 0.3 mL/min with a 30% mobile phase (acetonitrile containing 0.1% formic acid). Q Exactive MS was operated in positive mode with electrospray ionization. Ultrapure nitrogen was applied as the sheath (45 arbitrary units), auxiliary (10 arbitrary units), sweep (1.0 arbitrary unit), and the collision gas. […] Mass Spectrometry (MS) data were acquired from 80 to 1,200 Da in profile mode.

[2] = Metabolic stability in human liver microsomes; type: in vitro ADME; settings: for half-life at 2 μM: 0.5 mg protein/ml, 2.0 uM compound, 1.0 mM NADPH, read-out: HLM t1/2
Protocol: as §1

[3] = system: SARS-CoV-2 (USA_WA1/2020 isolate); assay: RTCA assay for in vitro inhibition of SARS-CoV-2 replication in VERO E6 cells; type: cell-based; settings: live SARS-CoV-2, 75 h; for IC50, SARS-CoV-2 induced cell death (normalized cell index, RTCA): duplicates
[4] = HepG2 cytotoxicity assay (XTT); type: cell-based; settings: human, 100 µM group, XTT, normalized to DMSO, read-out: HepG2 cell viability
Protocol: (§2) The HepG2 cells maintained in DMEM (containing 1 g/L glucose, 10% fetal bovine serum [FBS], and 1% penicillin/streptomycin) were seeded in a 12-well plate (a final density of 5 × 10^5 per well) for cell uptake assay and 96-well plate for cytotoxicity assay (a final density of 5 × 10^4 per well). The plate was incubated at 37 °C for 24 h.
(§3) The cells in 96-well plate were treated by CDD-1713 or CDD-1976 at the final concentrations of 0, 10, 20, 50, or 100 μM (n = 3 replicates per concentration level per drug). After 24-h incubation at 37 °C, the medium in the plate was decanted and 100 μL of Dulbecco’s modified Eagle’s medium (DMEM) (without phenol red) was added into each well. The cell variability was measured using XTT method. The absorbance at 475 nm was read with a Tecan M1000 pro machine, with a reference wavelength of 660 nm. The reading was normalized by vehicle with final 0.5% dimethyl sulfoxide (DMSO) for each drug.

[5] = system: HepG2 cells; assay: HepG2 cytotoxicity assay (XTT); type: cell-based; settings: 24 h; for cytotoxicity in HepG2 cells (in words): 100 μM
Protocol: as §2, §3

[6] = Plasma stability assay, human plasma; type: in vitro ADME; settings: 10 µM, 37 °C, after 2-h incubation
Protocol: (§4) Compound CDD-1713 and CDD-1976 were incubated in human and mouse plasma, respectively, at a concentration of 10 µM in duplicate (n = 2) at 37 °C. At time points of 0, 30, 60, and 120 min, 15 µL of sample were taken out and the reactions terminated by adding 75 µL of ice-cold methanol. The reaction mixtures were then vortexed for 30 s and centrifuged at rcf 15,000 for 15 min. Following centrifugation, 3 μL of the supernatant was analyzed using UHPLC-Q Exactive Orbitrap MS. The percentage of test compound remaining at the individual time points relative to the 0-min sample was then determined.

[7] = system: SARS-CoV-2 main protease (M^pro); assay: Protein thermal shift stability assay (thermofluor); type: binding; settings: 1.5 μM protease, various compound concentrations, SYPRO Orange
Protocol: The dye SYPRO Orange (Thermo Fisher Scientific) was used to perform the protein thermal shift assay. The assay was set up on a 384-well Roche plate where the SARS-CoV-2 main protease at a concentration of 1.5 μM was incubated with the test compound at various concentrations and SYPRO Orange dye at 5× in a 10 μL reaction. The melting curve experiment and data analysis were run on a Roche Lightcycler 480 real-time PCR instrument.

[8] = target: T1, renin (Homo sapiens, UniProt P00797); assay: Renin assay; type: biochemical; settings: best off-target inhibition observed; read-out: estimated Kiapp, renin
T1 construct: purchased BPS Bioscience 80211
T1 sequence (P00797 67-406): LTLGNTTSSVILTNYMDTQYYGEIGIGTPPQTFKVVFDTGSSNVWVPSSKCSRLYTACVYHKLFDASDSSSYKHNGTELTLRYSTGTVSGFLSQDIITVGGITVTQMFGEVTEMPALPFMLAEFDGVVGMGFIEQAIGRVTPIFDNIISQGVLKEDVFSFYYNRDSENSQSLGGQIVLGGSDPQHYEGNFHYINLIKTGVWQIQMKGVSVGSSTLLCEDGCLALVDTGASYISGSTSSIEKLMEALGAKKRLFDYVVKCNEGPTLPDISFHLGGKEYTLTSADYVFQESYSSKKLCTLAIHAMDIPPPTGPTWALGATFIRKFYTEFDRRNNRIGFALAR
Protocol: Renin assay: A kit from BPS Bioscience (80211) was used with adjustments to the manufacturer’s protocol as follows. The reaction was run at RT in black 96 half-area plates in a total reaction volume of 50 μL containing 0.01% Tween-20. Instead of measuring endpoints at 30 min the increase in fluorescence (Ex 490 nm, Em 520 nm) per second (RFU/s) was obtained from linear progress curves over 10 min. Fractional activities were calculated from reactions with no inhibitors. Aliskiren was used as a positive control.

[9] = Plasma stability assay, mouse plasma; type: in vitro ADME; settings: 10 µM, 37 °C, after 2-h incubation
Protocol: as §4

[10] = system: HepG2 cells; assay: HepG2 cell uptake assay; type: in vitro ADME; settings: 10 μM, 2 h, 37 °C
Protocol: as §2
The cells in 12-well plate were treated with CDD-1713 or CDD-1976 (final concentration: 10 μM). The plate was incubated at 37 °C for another 2 h. The medium in the plate was decanted and the cells were rinsed with 1 mL of 1× DPBS three times, then 0.5 mL of 0.25% trypsin was added to each well and incubated for 3.5 min (at 37 °C). One milliliter of complete medium was added to each well to quench the reaction. After spinning at 350 × g for 5 min, the cell pellet was reconstituted in MeOH/H2O (vol/vol 1/1) and CDD-1713 or CDD-1976 was extracted from 100 μL of the resulting mixture with 100 μL of ice-cold methanol. The mixtures were centrifuged at rcf 15,000 for 15 min. Three microliters of the supernatant was analyzed by UHPLC-Q Exactive Orbitrap MS (Thermo Fisher Scientific) equipped with a 50-mm × 4.6-mm column (XDB C-18; Agilent Technologies). The column temperature was set at 40 °C. Ultrapure nitrogen was applied as the sheath (45 arbitrary units), auxiliary (10 arbitrary units), sweep (1.0 arbitrary unit), and the collision gas. […]

[11] = target: SARS-CoV-2 M^pro-His6 (Severe acute respiratory syndrome coronavirus 2, UniProt P0DTD1); assay: M^pro-His6 enzyme inhibition assay, fluorescent peptide reporter; type: biochemical; settings: for M^pro inhibitory activity (in words): analogs compared with CDD-1713
[12] = target: SARS-CoV-2 M^pro (Severe acute respiratory syndrome coronavirus 2, UniProt P0DTD1); assay: M^pro (His tag removed) enzyme inhibition assay, fluorescent peptide reporter; type: biochemical; settings: Table S1, 25 nM enzyme, 15 µM fluorescent peptide, Morrison equation, SE from triplicates
[13] = read-out: Ki against M^pro (Fig. 2; Fig. 2B M^pro-His-tag), 25 nM enzyme, 15 µM fluorescent peptide, Morrison equation, inactive = less than 90% inhibition at 25 µM
[14] = read-out: Mpro-His Ki, Table S1, 25 nM enzyme, 15 µM fluorescent peptide, Morrison equation, SE from triplicates
[15] = Table S1, 25 nM enzyme, 15 µM fluorescent peptide, Morrison equation, SE from triplicates

SMILES: Cc1nnc2n1-c1ccc(Cl)cc1C(c1ccccc1)=NC2 [Alprazolam, reference compound]
- half-life at 2 μM [1]: 296 min
- half-life at 2 μM [2]: 832 min

SMILES: COc1cc(-c2cccc3[nH]ncc23)cc(C=O)c1OCC(=O)N(C)C [CDD-1713]
- effect on SARS-CoV-2 induced cell death (in words) [3]: reduced cell death in a dose-dependent manner
- IC50, SARS-CoV-2 induced cell death (normalized cell index, RTCA) [3]: 5190 nM
- viability at 24 h, 100 µM [4]: > 80%
- cytotoxicity in HepG2 cells (in words) [5]: no obvious cytotoxicity
- compound remained in human plasma [6]: 80%
- metabolic stability in mouse liver microsomes (in words) [1]: metabolically labile
- half-life at 2 μM [1]: 8.4 min
- stabilization of M^pro (temperature shift) [7]: stabilized; also recorded: concentration-dependent stabilization
- Ki [8]: 53000 nM
- compound remained in mouse plasma [9]: 80%
- cell permeability in uptake assay of HepG2 cells [10]: moderate cell permeability
- metabolic stability in human liver microsomes (in words) [2]: metabolically labile
- half-life at 2 μM [2]: 15.3 min
- Ki ([11]; 25 nM enzyme, 15 µM fluorescent peptide, Morrison equation, inactive = less than 90% inhibition at 25 µM, read-out: Ki against M^pro (Fig. 2; Fig. 2B M^pro-His-tag)): 45 ± 3 nM
- Ki ([11]; Table S1, 25 nM enzyme, 15 µM fluorescent peptide, Morrison equation, SE from triplicates, read-out: Mpro-His Ki): 45 ± 3 nM
- Ki ([11]; read-out: Ki against M^pro (Fig. 2; Fig. 2B M^pro-His-tag)): 45 nM

SMILES: COc1cc(-c2cccc3[nH]ncc23)cc(C=O)c1OCC(=O)N1CCC(Oc2cccc(C(=O)N(C)C)c2)C1 (stereo not shown) [CDD-1714]
- stabilization of M^pro (temperature shift) [7]: stabilized; also recorded: concentration-dependent stabilization
- Ki ([12]; read-out: Mpro Ki): 24 ± 3 nM
- Ki [11]: 20 nM
- Ki [11, 13]: 20 ± 3 nM
- Ki [11, 14]: 20 ± 3 nM

SMILES: COc1cc(-c2cccc3[nH]ncc23)cc(CO)c1OCC(=O)N(C)C [CDD-1776]
- Mpro Ki [12]: Inactive
- Mpro-His Ki [11, 15]: Inactive
- M^pro inhibitory activity (in words) [11]: completely abolished the activity

SMILES: COc1cc(-c2cccc3[nH]ncc23)ccc1OCC(=O)N(C)C [CDD-1793]
- Mpro Ki [12]: Inactive
- Mpro-His Ki [11, 15]: Inactive
- M^pro inhibitory activity (in words) [11]: completely abolished the activity

SMILES: COc1cc(-c2cccc3c2cnn3C)cc(C=O)c1OCC(=O)N(C)C [CDD-1847]
- effect on SARS-CoV-2 induced cell death (in words) [3]: unable to prevent cell death
- IC50, SARS-CoV-2 induced cell death (normalized cell index, RTCA) [3]: inactive
- Mpro Ki [12]: Inactive
- Mpro-His Ki [11, 15]: Inactive
- M^pro inhibitory activity (in words) [11]: completely lost activity

SMILES: COc1cc(-c2cccc3[nH]ncc23)cc(C(C)=O)c1OCC(=O)N(C)C [CDD-1883]
- Mpro Ki [12]: Inactive
- Mpro-His Ki [11, 15]: Inactive

SMILES: COc1cc(-c2cccc3[nH]ncc23)cc(C(=O)CO)c1OCC(=O)N(C)C [CDD-1886]
- Mpro Ki [12]: Inactive
- Mpro-His Ki [11, 15]: Inactive

SMILES: CCOC(=O)/C=C/c1cc(-c2cccc3[nH]ncc23)cc(OC)c1OCC(=O)N(C)C [CDD-1971]
- Mpro Ki [12]: Inactive
- Mpro-His Ki [11, 15]: Inactive

SMILES: CN(C)C(=O)COc1ccc(-c2cccc3[nH]ncc23)cc1C=O [CDD-1976]
- effect on SARS-CoV-2 induced cell death (in words) [3]: reduced cell death in a dose-dependent manner
- viability at 24 h, 100 µM ([4]; HepG2 cells): > 80%
- cytotoxicity in HepG2 cells (in words) [5]: no obvious cytotoxicity
- IC50 ([5]; Homo sapiens, HepG2, XTT assay, read-out: IC50, HepG2 cell viability): > 100000 nM
- compound remained in human plasma [6]: 80%
- metabolic stability in mouse liver microsomes (in words) [1]: more stable in human liver microsomes, but not mouse
- half-life at 2 μM [1]: 10.2 min
- stabilization of M^pro (temperature shift) [7]: stabilized; also recorded: concentration-dependent stabilization; also recorded: most pronounced temperature shift
- compound remained in mouse plasma [9]: 80%
- cell permeability in uptake assay of HepG2 cells [10]: moderate cell permeability
- metabolic stability in human liver microsomes (in words) [2]: more stable
- half-life at 2 μM [2]: 41.4 min
- Ki [11]: 37 nM
- M^pro inhibitory activity (in words) [11]: better inhibition compared to CDD-1713
- Ki [11, 13]: 37 ± 4 nM
- Ki [11, 14]: 37 ± 4 nM

SMILES: CN(C)C(=O)COc1ccc(-c2cccc3[nH]ncc23)cc1C#N [CDD-2038]
- Mpro Ki [12]: Inactive
- Mpro-His Ki [11, 15]: Inactive
